In patent US6689773B2, “Uracil substituted phenyl sulfamoyl carboxamides” (BASF Aktiengesellschaft, priority 2000, dated 2004):

Columns and labels:
Format in all cases: in vivo
[1] = system: ABUTH, Velvetleaf, Abutilon theophrasti, Medic.; test: Postemergence herbicidal evaluation (Example 147); conditions: rating scale 0-9, two to three weeks after treatment
Method in brief: (§1)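 Spray carrier: 80/20 acetone/water, 1.0% SUN-IT II methylated seed oil; rate about 0.016 to 0.032 kg/ha at 40 psi onto two-week seedlings. Assessment: plant stand, vigor, chlorosis and malformation scored 0-9 versus control, two to three weeks after treatment.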

[2] = system: ALOMY, Blackgrass, Alopecurus myosuroides; test: Postemergence herbicidal evaluation (Example 147); conditions: rating scale 0-9, two to three weeks after treatment
Method in brief: as §1

[3] = system: AMBEL, Ragweed, Common, Ambrosia artemiisifolia, L.; test: Postemergence herbicidal evaluation (Example 147); conditions: rating scale 0-9, two to three weeks after treatment
Method in brief: as §1

[4] = system: CHEAL, Lambsquarters, Chenopodium album, L. Common; test: Postemergence herbicidal evaluation (Example 147); conditions: rating scale 0-9, two to three weeks after treatment
Method in brief: as §1

[5] = system: DIGSA, Crabgrass, (Hairy) L, Digitaria sanguinalis, (L)Scop; test: Postemergence herbicidal evaluation (Example 147); conditions: rating scale 0-9, two to three weeks after treatment
Method in brief: as §1

[6] = system: ECHCG, Barnyardgrass, Echinochloa crusgalli, (L.)Beau; test: Postemergence herbicidal evaluation (Example 147); conditions: rating scale 0-9, two to three weeks after treatment
Method in brief: as §1

[7] = system: GLXMA, Soybean, Glycine max, (L.) Merr.; test: Postemergence herbicidal evaluation (Example 147); conditions: rating scale 0-9, two to three weeks after treatment
Method in brief: as §1

[8] = system: IPOHE, Morningglory, Ivyleaf, Ipomoea hederacea, (L)Jacq.; test: Postemergence herbicidal evaluation (Example 147); conditions: rating scale 0-9, two to three weeks after treatment
Method in brief: as §1

[9] = system: SETVI, Green foxtail, Setaria viridis, (L.)Beau; test: Postemergence herbicidal evaluation (Example 147); conditions: rating scale 0-9, two to three weeks after treatment
Method in brief: as §1

[10] = system: TRZAW, Winter wheat, Tritium Aestivum, L. (Winter); test: Postemergence herbicidal evaluation (Example 147); conditions: rating scale 0-9, two to three weeks after treatment
Method in brief: as §1

[11] = system: XANST, Cocklebur, Xanthium strumariam; test: Postemergence herbicidal evaluation (Example 147); conditions: rating scale 0-9, two to three weeks after treatment
Method in brief: as §1

[12] = system: ZEAMX, Field corn, Zea mays L.; test: Postemergence herbicidal evaluation (Example 147); conditions: rating scale 0-9, two to three weeks after treatment
Method in brief: as §1

[13] = system: ABUTH, Velvetleaf, Abutilon theophrasti, Medic.; test: Preemergence herbicidal evaluation (Example 148); conditions: rating scale 0-9, two to four weeks after treatment
Method in brief: (§2)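 Greenhouse cups of separately sown species were treated pre-emergence at about 0.125–0.250 kg/ha. Evaluation was visual, 2–4 weeks after spraying, with averaged values for repeated tests.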

[14] = system: ALOMY, Blackgrass, Alopecurus myosuroides; test: Preemergence herbicidal evaluation (Example 148); conditions: rating scale 0-9, two to four weeks after treatment
Method in brief: as §2

[15] = system: AMBEL, Ragweed, Common, Ambrosia artemiisifolia, L.; test: Preemergence herbicidal evaluation (Example 148); conditions: rating scale 0-9, two to four weeks after treatment
Method in brief: as §2

[16] = system: CHEAL, Lambsquarters, Chenopodium album, L. Common; test: Preemergence herbicidal evaluation (Example 148); conditions: rating scale 0-9, two to four weeks after treatment
Method in brief: as §2

[17] = system: DIGSA, Crabgrass, (Hairy) L, Digitaria sanguinalis, (L)Scop; test: Preemergence herbicidal evaluation (Example 148); conditions: rating scale 0-9, two to four weeks after treatment
Method in brief: as §2

[18] = system: ECHCG, Barnyardgrass, Echinochloa crusgalli, (L.)Beau; test: Preemergence herbicidal evaluation (Example 148); conditions: rating scale 0-9, two to four weeks after treatment
Method in brief: as §2

[19] = system: GLXMA, Soybean, Glycine max, (L.) Merr.; test: Preemergence herbicidal evaluation (Example 148); conditions: rating scale 0-9, two to four weeks after treatment
Method in brief: as §2

[20] = system: IPOHE, Morningglory, Ivyleaf, Ipomoea hederacea, (L)Jacq.; test: Preemergence herbicidal evaluation (Example 148); conditions: rating scale 0-9, two to four weeks after treatment
Method in brief: as §2

[21] = system: SETVI, Green foxtail, Setaria viridis, (L.)Beau; test: Preemergence herbicidal evaluation (Example 148); conditions: rating scale 0-9, two to four weeks after treatment
Method in brief: as §2

[22] = system: TRZAW, Winter wheat, Tritium Aestivum, L. (Winter); test: Preemergence herbicidal evaluation (Example 148); conditions: rating scale 0-9, two to four weeks after treatment
Method in brief: as §2

[23] = system: XANST, Cocklebur, Xanthium strumariam; test: Preemergence herbicidal evaluation (Example 148); conditions: rating scale 0-9, two to four weeks after treatment
Method in brief: as §2

[24] = system: ZEAMX, Field corn, Zea mays L.; test: Preemergence herbicidal evaluation (Example 148); conditions: rating scale 0-9, two to four weeks after treatment
Method in brief: as §2

Cn1c(C(F)(F)F)cc(=O)n(-c2cc(C(=O)NS(=O)(=O)NCc3cccs3)c(Cl)cc2F)c1=O [Example 77]
Postemergence herbicidal rating ABUTH ([1]; rate 0.016 kg/ha): 9.0
Postemergence herbicidal rating ABUTH ([1]; rate 0.032 kg/ha): 9.0
Postemergence herbicidal rating ALMOY ([2]; rate 0.016 kg/ha): 1.0
Postemergence herbicidal rating ALMOY ([2]; rate 0.032 kg/ha): 1.0
Postemergence herbicidal rating AMBEL ([3]; rate 0.016 kg/ha): 8.0
Postemergence herbicidal rating AMBEL ([3]; rate 0.032 kg/ha): 8.0
Postemergence herbicidal rating CHEAL ([4]; rate 0.016 kg/ha): 6.0
Postemergence herbicidal rating CHEAL ([4]; rate 0.032 kg/ha): 7.0
Postemergence herbicidal rating DIGSA ([5]; rate 0.016 kg/ha): 4.0
Postemergence herbicidal rating DIGSA ([5]; rate 0.032 kg/ha): 4.0
Postemergence herbicidal rating ECHCG ([6]; rate 0.016 kg/ha): 4.0
Postemergence herbicidal rating ECHCG ([6]; rate 0.032 kg/ha): 6.0
Postemergence herbicidal rating GLXMA ([7]; rate 0.016 kg/ha): 7.5
Postemergence herbicidal rating GLXMA ([7]; rate 0.032 kg/ha): 7.5
Postemergence herbicidal rating IPOHE ([8]; rate 0.016 kg/ha): 9.0
Postemergence herbicidal rating IPOHE ([8]; rate 0.032 kg/ha): 9.0
Postemergence herbicidal rating SETVI ([9]; rate 0.016 kg/ha): 5.0
Postemergence herbicidal rating SETVI ([9]; rate 0.032 kg/ha): 6.0
Postemergence herbicidal rating TRZAW ([10]; rate 0.016 kg/ha): 4.5
Postemergence herbicidal rating TRZAW ([10]; rate 0.032 kg/ha): 5.0
Postemergence herbicidal rating XANST ([11]; rate 0.016 kg/ha): 9.0
Postemergence herbicidal rating XANST ([11]; rate 0.032 kg/ha): 9.0
Postemergence herbicidal rating ZEAMX ([12]; rate 0.016 kg/ha): 6.0
Postemergence herbicidal rating ZEAMX ([12]; rate 0.032 kg/ha): 6.5
Preemergence herbicidal rating ABUTH ([13]; rate 0.125 kg/ha): 9.0
Preemergence herbicidal rating ABUTH ([13]; rate 0.25 kg/ha): 9.0
Preemergence herbicidal rating ALMOY ([14]; rate 0.125 kg/ha): 0.0
Preemergence herbicidal rating ALMOY ([14]; rate 0.25 kg/ha): 0.0
Preemergence herbicidal rating AMBEL ([15]; rate 0.125 kg/ha): 9.0
Preemergence herbicidal rating AMBEL ([15]; rate 0.25 kg/ha): 9.0
Preemergence herbicidal rating CHEAL ([16]; rate 0.125 kg/ha): 9.0
Preemergence herbicidal rating CHEAL ([16]; rate 0.25 kg/ha): 9.0
Preemergence herbicidal rating DIGSA ([17]; rate 0.125 kg/ha): 2.0
Preemergence herbicidal rating DIGSA ([17]; rate 0.25 kg/ha): 4.0
Preemergence herbicidal rating ECHCG ([18]; rate 0.125 kg/ha): 2.0
Preemergence herbicidal rating ECHCG ([18]; rate 0.25 kg/ha): 3.0
Preemergence herbicidal rating GLXMA ([19]; rate 0.125 kg/ha): 1.0
Preemergence herbicidal rating IPOHE ([20]; rate 0.125 kg/ha): 7.0
Preemergence herbicidal rating IPOHE ([20]; rate 0.25 kg/ha): 9.0
Preemergence herbicidal rating SETVI ([21]; rate 0.125 kg/ha): 2.0
Preemergence herbicidal rating SETVI ([21]; rate 0.25 kg/ha): 2.0
Preemergence herbicidal rating TRZAW ([22]; rate 0.125 kg/ha): 0.0
Preemergence herbicidal rating TRZAW ([22]; rate 0.25 kg/ha): 0.0
Preemergence herbicidal rating XANST ([23]; rate 0.125 kg/ha): 3.0
Preemergence herbicidal rating XANST ([23]; rate 0.25 kg/ha): 8.0
Preemergence herbicidal rating ZEAMX ([24]; rate 0.125 kg/ha): 0.0
Preemergence herbicidal rating ZEAMX ([24]; rate 0.25 kg/ha): 1.0

Cn1c(C(F)(F)F)cc(=O)n(-c2cc(C(=O)NS(=O)(=O)NC3CCCC3)c(Cl)cc2F)c1=O [Example 78]
Postemergence herbicidal rating ABUTH ([1]; rate 0.016 kg/ha): 9.0
Postemergence herbicidal rating ABUTH ([1]; rate 0.032 kg/ha): 9.0
Postemergence herbicidal rating ALMOY ([2]; rate 0.016 kg/ha): 2.0
Postemergence herbicidal rating ALMOY ([2]; rate 0.032 kg/ha): 2.0
Postemergence herbicidal rating AMBEL ([3]; rate 0.016 kg/ha): 9.0
Postemergence herbicidal rating AMBEL ([3]; rate 0.032 kg/ha): 9.0
Postemergence herbicidal rating CHEAL ([4]; rate 0.016 kg/ha): 7.0
Postemergence herbicidal rating CHEAL ([4]; rate 0.032 kg/ha): 9.0
Postemergence herbicidal rating DIGSA ([5]; rate 0.016 kg/ha): 5.0
Postemergence herbicidal rating DIGSA ([5]; rate 0.032 kg/ha): 6.0
Postemergence herbicidal rating ECHCG ([6]; rate 0.016 kg/ha): 8.0
Postemergence herbicidal rating ECHCG ([6]; rate 0.032 kg/ha): 9.0
Postemergence herbicidal rating GLXMA ([7]; rate 0.016 kg/ha): 7.0
Postemergence herbicidal rating GLXMA ([7]; rate 0.032 kg/ha): 8.0
Postemergence herbicidal rating IPOHE ([8]; rate 0.016 kg/ha): 9.0
Postemergence herbicidal rating IPOHE ([8]; rate 0.032 kg/ha): 9.0
Postemergence herbicidal rating SETVI ([9]; rate 0.016 kg/ha): 8.0
Postemergence herbicidal rating SETVI ([9]; rate 0.032 kg/ha): 9.0
Postemergence herbicidal rating TRZAW ([10]; rate 0.016 kg/ha): 5.5
Postemergence herbicidal rating TRZAW ([10]; rate 0.032 kg/ha): 6.5
Postemergence herbicidal rating XANST ([11]; rate 0.016 kg/ha): 9.0
Postemergence herbicidal rating XANST ([11]; rate 0.032 kg/ha): 9.0
Postemergence herbicidal rating ZEAMX ([12]; rate 0.016 kg/ha): 6.5
Postemergence herbicidal rating ZEAMX ([12]; rate 0.032 kg/ha): 7.0
Preemergence herbicidal rating ABUTH ([13]; rate 0.125 kg/ha): 9.0
Preemergence herbicidal rating ABUTH ([13]; rate 0.25 kg/ha): 9.0
Preemergence herbicidal rating ALMOY ([14]; rate 0.125 kg/ha): 1.0
Preemergence herbicidal rating ALMOY ([14]; rate 0.25 kg/ha): 2.0
Preemergence herbicidal rating AMBEL ([15]; rate 0.125 kg/ha): 9.0
Preemergence herbicidal rating AMBEL ([15]; rate 0.25 kg/ha): 9.0
Preemergence herbicidal rating CHEAL ([16]; rate 0.125 kg/ha): 9.0
Preemergence herbicidal rating CHEAL ([16]; rate 0.25 kg/ha): 9.0
Preemergence herbicidal rating DIGSA ([17]; rate 0.125 kg/ha): 4.0
Preemergence herbicidal rating DIGSA ([17]; rate 0.25 kg/ha): 8.0
Preemergence herbicidal rating ECHCG ([18]; rate 0.125 kg/ha): 4.0
Preemergence herbicidal rating ECHCG ([18]; rate 0.25 kg/ha): 7.0
Preemergence herbicidal rating GLXMA ([19]; rate 0.125 kg/ha): 3.0
Preemergence herbicidal rating GLXMA ([19]; rate 0.25 kg/ha): 5.0
Preemergence herbicidal rating IPOHE ([20]; rate 0.125 kg/ha): 9.0
Preemergence herbicidal rating IPOHE ([20]; rate 0.25 kg/ha): 9.0
Preemergence herbicidal rating SETVI ([21]; rate 0.125 kg/ha): 5.0
Preemergence herbicidal rating SETVI ([21]; rate 0.25 kg/ha): 7.0
Preemergence herbicidal rating TRZAW ([22]; rate 0.125 kg/ha): 1.0
Preemergence herbicidal rating TRZAW ([22]; rate 0.25 kg/ha): 1.0
Preemergence herbicidal rating XANST ([23]; rate 0.125 kg/ha): 9.0
Preemergence herbicidal rating XANST ([23]; rate 0.25 kg/ha): 9.0
Preemergence herbicidal rating ZEAMX ([24]; rate 0.125 kg/ha): 0.0
Preemergence herbicidal rating ZEAMX ([24]; rate 0.25 kg/ha): 1.0
